Experimental data as given in US20100041089A1, “IMPROVED METHOD FOR DETECTING CHEMICAL […]” (priority 2006, published 2010).

Test system: yeast genes (expressed mRNA)
Test: DNA chip measurement of expressed mRNA of yeast genes after culture with a toxic chemical substance
Type: cell-based, Saccharomyces cerevisiae S288C
Outline: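 S. cerevisiae S288C grown at 25 °C in YPD, exposed in log phase for 2 h to a toxicant at growth-inhibiting, non-lethal concentration. Cy3/Cy5-labelled cDNA from poly(A) mRNA hybridized to whole-genome chip at 65 °C >12 h. Ratio to untreated control, ≥2 significant.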

## Oc1cc(Cl)c(Cl)cc1Cl [(6), 2,4,5-Trichlorophenol]
Yeast gene YAL053W, cultured two hours with substance
  The level of expressed mRNA in the presence of chemical substance/The level of expressed mRNA in the absence of chemical substance: 1.1
Yeast gene YAR028W, cultured two hours with substance
  The level of expressed mRNA in the presence of chemical substance/The level of expressed mRNA in the absence of chemical substance: 3.3
Yeast gene YBL043W
  The level of expressed mRNA in the presence of chemical substance/The level of expressed mRNA in the absence of chemical substance: 26.9
Yeast gene YBL048W, cultured two hours with substance
  The level of expressed mRNA in the presence of chemical substance/The level of expressed mRNA in the absence of chemical substance: 2.0
Yeast gene YBL107C, cultured two hours with substance
  The level of expressed mRNA in the presence of chemical substance/The level of expressed mRNA in the absence of chemical substance: 1.1
Yeast gene YBR026C
  The level of expressed mRNA in the presence of chemical substance/The level of expressed mRNA in the absence of chemical substance: 0.1
Yeast gene YBR072W (stress protein genes)
  The level of expressed mRNA in the presence of chemical substance/The level of expressed mRNA in the absence of chemical substance: 32.2
Yeast gene YBR145W
  The level of expressed mRNA in the presence of chemical substance/The level of expressed mRNA in the absence of chemical substance: 11.5
Yeast gene YBR145W (detoxification protein gene)
  The level of expressed mRNA in the presence of chemical substance/The level of expressed mRNA in the absence of chemical substance: 11.5
Yeast gene YBR145W, cultured for two hours with substance
  The level of expressed mRNA in the presence of chemical substance/The level of expressed mRNA in the absence of chemical substance: 11.5
Yeast gene YBR169C (stress protein genes)
  The level of expressed mRNA in the presence of chemical substance/The level of expressed mRNA in the absence of chemical substance: 4.9
Yeast gene YDL072C, cultured two hours with substance
  The level of expressed mRNA in the presence of chemical substance/The level of expressed mRNA in the absence of chemical substance: 1.5
Yeast gene YDL204W, cultured two hours with substance
  The level of expressed mRNA in the presence of chemical substance/The level of expressed mRNA in the absence of chemical substance: 5.6
Yeast gene YDL206W (transport facilitation protein genes)
  The level of expressed mRNA in the presence of chemical substance/The level of expressed mRNA in the absence of chemical substance: 5.7
Yeast gene YDL222C, cultured two hours with substance
  The level of expressed mRNA in the presence of chemical substance/The level of expressed mRNA in the absence of chemical substance: 1.4
Yeast gene YDR031W, cultured two hours with substance
  The level of expressed mRNA in the presence of chemical substance/The level of expressed mRNA in the absence of chemical substance: 3.6
Yeast gene YDR033W (stress protein genes)
  The level of expressed mRNA in the presence of chemical substance/The level of expressed mRNA in the absence of chemical substance: 6.7
Yeast gene YDR315C
  The level of expressed mRNA in the presence of chemical substance/The level of expressed mRNA in the absence of chemical substance: 9.4
Yeast gene YDR330W, cultured two hours with substance
  The level of expressed mRNA in the presence of chemical substance/The level of expressed mRNA in the absence of chemical substance: 2.3
Yeast gene YDR391C, cultured two hours with substance
  The level of expressed mRNA in the presence of chemical substance/The level of expressed mRNA in the absence of chemical substance: 2.8
Yeast gene YDR406W (transport facilitation protein gene)
  The level of expressed mRNA in the presence of chemical substance/The level of expressed mRNA in the absence of chemical substance: 5.9
Yeast gene YDR411C, cultured two hours with substance
  The level of expressed mRNA in the presence of chemical substance/The level of expressed mRNA in the absence of chemical substance: 0.8
Yeast gene YDR511W, cultured two hours with substance
  The level of expressed mRNA in the presence of chemical substance/The level of expressed mRNA in the absence of chemical substance: 2.0
Yeast gene YDR545W, cultured two hours with substance
  The level of expressed mRNA in the presence of chemical substance/The level of expressed mRNA in the absence of chemical substance: 1.0
Yeast gene YEL001C, cultured two hours with substance
  The level of expressed mRNA in the presence of chemical substance/The level of expressed mRNA in the absence of chemical substance: 1.3
Yeast gene YER004W, cultured two hours with substance
  The level of expressed mRNA in the presence of chemical substance/The level of expressed mRNA in the absence of chemical substance: 1.2
Yeast gene YER035W, cultured two hours with substance
  The level of expressed mRNA in the presence of chemical substance/The level of expressed mRNA in the absence of chemical substance: 0.9
Yeast gene YER079W, cultured two hours with substance
  The level of expressed mRNA in the presence of chemical substance/The level of expressed mRNA in the absence of chemical substance: 1.5
Yeast gene YER106W, cultured two hours with substance
  The level of expressed mRNA in the presence of chemical substance/The level of expressed mRNA in the absence of chemical substance: 1.1
Yeast gene YER158C, cultured two hours with substance
  The level of expressed mRNA in the presence of chemical substance/The level of expressed mRNA in the absence of chemical substance: 0.7
Yeast gene YER163C, cultured two hours with substance
  The level of expressed mRNA in the presence of chemical substance/The level of expressed mRNA in the absence of chemical substance: 2.0
Yeast gene YER175C, cultured two hours with substance
  The level of expressed mRNA in the presence of chemical substance/The level of expressed mRNA in the absence of chemical substance: 0.8
Yeast gene YFL006W, cultured two hours with substance
  The level of expressed mRNA in the presence of chemical substance/The level of expressed mRNA in the absence of chemical substance: 1.2
Yeast gene YFL010C, cultured two hours with substance
  The level of expressed mRNA in the presence of chemical substance/The level of expressed mRNA in the absence of chemical substance: 1.9
Yeast gene YFL014W, DNA repair protein genes, cultured two hours with substance
  The level of expressed mRNA in the presence of chemical substance/The level of expressed mRNA in the absence of chemical substance: 9.3
Yeast gene YFL024C, cultured two hours with substance
  The level of expressed mRNA in the presence of chemical substance/The level of expressed mRNA in the absence of chemical substance: 2.0
Yeast gene YFL032W, cultured two hours with substance
  The level of expressed mRNA in the presence of chemical substance/The level of expressed mRNA in the absence of chemical substance: 0.6
Yeast gene YGL037C, cultured two hours with substance
  The level of expressed mRNA in the presence of chemical substance/The level of expressed mRNA in the absence of chemical substance: 1.3
Yeast gene YGL047W, cultured two hours with substance
  The level of expressed mRNA in the presence of chemical substance/The level of expressed mRNA in the absence of chemical substance: 1.5
Yeast gene YGL053W, cultured two hours with substance
  The level of expressed mRNA in the presence of chemical substance/The level of expressed mRNA in the absence of chemical substance: 2.7
Yeast gene YGL117W, cultured two hours with substance
  The level of expressed mRNA in the presence of chemical substance/The level of expressed mRNA in the absence of chemical substance: 0.9
Yeast gene YGL121C, cultured two hours with substance
  The level of expressed mRNA in the presence of chemical substance/The level of expressed mRNA in the absence of chemical substance: 9.8
Yeast gene YGL199C, cultured two hours with substance
  The level of expressed mRNA in the presence of chemical substance/The level of expressed mRNA in the absence of chemical substance: 0.7
Yeast gene YGR043C
  The level of expressed mRNA in the presence of chemical substance/The level of expressed mRNA in the absence of chemical substance: 16.3
Yeast gene YGR043C, cultured for two hours with substance
  The level of expressed mRNA in the presence of chemical substance/The level of expressed mRNA in the absence of chemical substance: 16.3
Yeast gene YGR101W, cultured two hours with substance
  The level of expressed mRNA in the presence of chemical substance/The level of expressed mRNA in the absence of chemical substance: 0.9
Yeast gene YGR108W
  The level of expressed mRNA in the presence of chemical substance/The level of expressed mRNA in the absence of chemical substance: 0.1
Yeast gene YGR110W, cultured two hours with substance
  The level of expressed mRNA in the presence of chemical substance/The level of expressed mRNA in the absence of chemical substance: 0.9
Yeast gene YGR130C, cultured two hours with substance
  The level of expressed mRNA in the presence of chemical substance/The level of expressed mRNA in the absence of chemical substance: 0.9
Yeast gene YGR154C, cultured two hours with substance
  The level of expressed mRNA in the presence of chemical substance/The level of expressed mRNA in the absence of chemical substance: 1.4
Yeast gene YGR221C, cultured two hours with substance
  The level of expressed mRNA in the presence of chemical substance/The level of expressed mRNA in the absence of chemical substance: 3.0
Yeast gene YHL040C (detoxification protein gene)
  The level of expressed mRNA in the presence of chemical substance/The level of expressed mRNA in the absence of chemical substance: 7.3
Yeast gene YHL040C (transport facilitation protein gene)
  The level of expressed mRNA in the presence of chemical substance/The level of expressed mRNA in the absence of chemical substance: 7.3
Yeast gene YHR029C, cultured two hours with substance
  The level of expressed mRNA in the presence of chemical substance/The level of expressed mRNA in the absence of chemical substance: 2.7
Yeast gene YHR138C, cultured two hours with substance
  The level of expressed mRNA in the presence of chemical substance/The level of expressed mRNA in the absence of chemical substance: 3.8
Yeast gene YHR199C, cultured two hours with substance
  The level of expressed mRNA in the presence of chemical substance/The level of expressed mRNA in the absence of chemical substance: 1.1
Yeast gene YIL023C, cultured two hours with substance
  The level of expressed mRNA in the presence of chemical substance/The level of expressed mRNA in the absence of chemical substance: 0.9
Yeast gene YIL024C, cultured two hours with substance
  The level of expressed mRNA in the presence of chemical substance/The level of expressed mRNA in the absence of chemical substance: 1.0
Yeast gene YIL041W, cultured two hours with substance
  The level of expressed mRNA in the presence of chemical substance/The level of expressed mRNA in the absence of chemical substance: 1.0
Yeast gene YIL087C, cultured two hours with substance
  The level of expressed mRNA in the presence of chemical substance/The level of expressed mRNA in the absence of chemical substance: 4.1
Yeast gene YIL117C, cultured two hours with substance
  The level of expressed mRNA in the presence of chemical substance/The level of expressed mRNA in the absence of chemical substance: 1.2
Yeast gene YJL057C, cultured two hours with substance
  The level of expressed mRNA in the presence of chemical substance/The level of expressed mRNA in the absence of chemical substance: 1.4
Yeast gene YJL066C, cultured two hours with substance
  The level of expressed mRNA in the presence of chemical substance/The level of expressed mRNA in the absence of chemical substance: 1.4
Yeast gene YJL082W, cultured two hours with substance
  The level of expressed mRNA in the presence of chemical substance/The level of expressed mRNA in the absence of chemical substance: 0.2
Yeast gene YJL108C, cultured two hours with substance
  The level of expressed mRNA in the presence of chemical substance/The level of expressed mRNA in the absence of chemical substance: 0.6
Yeast gene YJL149W, cultured two hours with substance
  The level of expressed mRNA in the presence of chemical substance/The level of expressed mRNA in the absence of chemical substance: 0.7
Yeast gene YJL151C, cultured two hours with substance
  The level of expressed mRNA in the presence of chemical substance/The level of expressed mRNA in the absence of chemical substance: 2.2
Yeast gene YJL152W, cultured two hours with substance
  The level of expressed mRNA in the presence of chemical substance/The level of expressed mRNA in the absence of chemical substance: 1.5
Yeast gene YJL161W, cultured two hours with substance
  The level of expressed mRNA in the presence of chemical substance/The level of expressed mRNA in the absence of chemical substance: 8.0
Yeast gene YJL171C, cultured two hours with substance
  The level of expressed mRNA in the presence of chemical substance/The level of expressed mRNA in the absence of chemical substance: 2.7
Yeast gene YJL186W, cultured two hours with substance
  The level of expressed mRNA in the presence of chemical substance/The level of expressed mRNA in the absence of chemical substance: 0.7
Yeast gene YJR008W, cultured two hours with substance
  The level of expressed mRNA in the presence of chemical substance/The level of expressed mRNA in the absence of chemical substance: 2.2
